# From patent publication US20260234211A1, “POLYPEPTIDE HAVING MODIFIED STRUCTURE AND USE THEREOF” (Guangdong Raynovent Biotech Co., Ltd., priority 2023, published 2026)
# Where two headings read alike, the source gives them in different places.
# What was measured:
# [1] = target: T1, GIPR (Homo sapiens, UniProt P48546); experiment: In vitro GIPR agonistic activity test (cAMP, CHO cell line); assay type: cell-based; conditions: CHO cells expressing GIPR, read-out: GIP-1 EC50
# T1 construct: host or cells: CHO
# T1 sequence (P48546 22-466): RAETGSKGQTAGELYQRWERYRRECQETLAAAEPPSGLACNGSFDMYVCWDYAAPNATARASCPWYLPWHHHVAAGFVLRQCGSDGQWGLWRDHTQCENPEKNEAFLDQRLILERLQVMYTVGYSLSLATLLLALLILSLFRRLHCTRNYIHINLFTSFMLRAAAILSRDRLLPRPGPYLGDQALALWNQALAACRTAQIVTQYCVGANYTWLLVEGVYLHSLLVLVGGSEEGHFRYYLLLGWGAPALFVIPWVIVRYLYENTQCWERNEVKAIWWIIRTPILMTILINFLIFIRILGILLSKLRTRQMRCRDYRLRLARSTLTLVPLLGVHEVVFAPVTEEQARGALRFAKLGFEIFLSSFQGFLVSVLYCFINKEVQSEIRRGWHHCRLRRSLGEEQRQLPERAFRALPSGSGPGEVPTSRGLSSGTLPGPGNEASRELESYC
# Procedure: (§1) The cell lines were constructed by Pharmaron Inc. See details in the table below.
# (§2) The test compounds were diluted at a 5-fold dilution factor in 10 points, starting from an initial concentration of 200 nM.
# (§3) 1) The cell lines were cultured respectively in complete medium at 37° C. and 5% CO2.
# (§4) 1) Eu-cAMP tracer was freeze-thawed and diluted 50 fold with detection buffer; and Ulight-anti-cAMP was freeze-thawed and diluted 150 fold with detection buffer.
# (§5) 3) 10 μL of Eu-cAMP tracer was added and then 10 μL of Uligh-anti-cAMP was added into experimental wells respectively.
# (§6) 4) The reaction plate was centrifuged at 200 g at room temperature for 30 s and left for stand at 25° C. for 1 h.
# [2] = target: T2, GLP-1R (Homo sapiens, UniProt P43220); experiment: In vitro GLP-1R agonistic activity test (cAMP, HEK293 cell line); assay type: cell-based
# T2 construct: host or cells: HEK293
# T2 sequence (P43220 24-463, species assumed): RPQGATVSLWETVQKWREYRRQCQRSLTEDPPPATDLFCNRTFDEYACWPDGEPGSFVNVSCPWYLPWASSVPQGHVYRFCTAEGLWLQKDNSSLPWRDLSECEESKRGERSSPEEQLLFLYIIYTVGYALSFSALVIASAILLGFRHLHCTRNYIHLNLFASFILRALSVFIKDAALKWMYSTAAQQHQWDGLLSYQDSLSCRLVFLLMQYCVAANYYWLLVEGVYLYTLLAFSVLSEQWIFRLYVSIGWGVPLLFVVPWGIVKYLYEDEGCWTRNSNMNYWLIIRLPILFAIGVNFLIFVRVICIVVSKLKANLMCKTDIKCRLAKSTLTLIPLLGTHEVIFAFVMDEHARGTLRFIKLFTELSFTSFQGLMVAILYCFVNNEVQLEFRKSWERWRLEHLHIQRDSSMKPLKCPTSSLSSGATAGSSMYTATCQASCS
# Procedure: as §1, §2, §3, §4, §5, §6
# [3] = Metabolic stability in human kidney S9; assay type: in vitro ADME; conditions: human, s9
# Procedure: The metabolic stability of the compounds in human kidney was evaluated to determine whether the drugs would be degraded by metabolic enzymes in the kidney to affect the efficacies and pharmacokinetics. 1. Relevant solutions were formulated. 2. a) With cofactors (NADPH & UDPGA): NADPH and UDPGA were added during the incubation. […] H2O was added into the culture solution. The final concentration of KS9 Fractions was 1 mg/mL. The mixture was pre-heated at 37° C. for 10 min. […] In this study, 7-hydroxy-coumarin and Raloxifene were used as the positive control. The final concentration of the positive control compounds was 0.2 μM, and the final concentration of the test compound was 1 μM. The culture solution was incubated in water bath at 37° C. 4. At 0.5, 5, 15, 30 and 60 min, volume aliquots were taken from the reaction solution and the reaction was stopped by adding acetonitrile. The samples were centrifuged for 30 min. The supernatant was taken and mixed with ultrapure water for subsequent LC-MS/MS analysis. 5. Data analysis: All calculation was conducted using Microsoft Excel. Peak areas were determined and slope values were calculated based on the extracted ion chromatograms.
# [4] = target: T3, GCGR (Homo sapiens, UniProt P47871); experiment: In vitro GCGR agonistic activity test (cAMP, HEK293 cell line); assay type: cell-based
# T3 construct: host or cells: HEK293
# T3 sequence (P47871 26-477, species assumed): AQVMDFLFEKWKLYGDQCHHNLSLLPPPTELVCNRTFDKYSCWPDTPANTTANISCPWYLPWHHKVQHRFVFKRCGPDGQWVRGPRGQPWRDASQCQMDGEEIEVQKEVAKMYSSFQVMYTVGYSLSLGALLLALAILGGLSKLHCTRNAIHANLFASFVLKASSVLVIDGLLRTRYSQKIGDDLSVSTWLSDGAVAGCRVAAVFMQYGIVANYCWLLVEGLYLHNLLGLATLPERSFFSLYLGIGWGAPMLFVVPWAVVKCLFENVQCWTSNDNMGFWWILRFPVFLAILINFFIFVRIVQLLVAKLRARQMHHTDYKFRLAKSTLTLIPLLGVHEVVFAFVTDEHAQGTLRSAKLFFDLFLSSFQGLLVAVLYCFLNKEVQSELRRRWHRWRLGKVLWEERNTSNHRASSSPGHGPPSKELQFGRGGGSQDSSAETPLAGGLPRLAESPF
# Procedure: as §1, §2, §3
# 2) After digestion with TrypLE, the cells were re-suspended in experimental buffer respectively, and inoculated in a CulturPlate-384 cell culture plate at a density of 2000 cells/well and at a volume of 15 μL/well.
# as §4
# 2) 5 μL of the test compounds were added respectively into experimental wells of the CulturPlate-384 cell culture plate, which was centrifuged at 200 g for 30 s, and left for stand at 37° C. for 30 min.
# as §5, §6
# 5) Envision 2105 was used to collect data, with excitation light at 340 nm and emission light at 665 nm and 615 nm.
# [5] = Pharmacokinetic properties in Cynomolgus macaques; conditions: cynomolgus monkey, in vivo, male cynomolgus macaques, plasma
# Procedure: To test the pharmacokinetic profiles of the compounds in Cynomolgus macaques.
# Non-juvenile male cynomolgus macaques were used for experiment, 3 cynomolgus macaques for each compound. Whole blood was collected at time points of 1 h, 2 h, 4 h, 8 h, 16 h, 24 h, 48 h, 72 h, 120 h, 168 h and 240 h after administration, to prepare plasma. The drug concentration was analyzed by LC-MS/MS method, and the pharmacokinetic parameters were calculated using Phoenix WinNonlin software.
# [6] = cAMP, HEK293 cells expressing GLP-1R, read-out: GLP-1 EC50
# [7] = cAMP, HEK293 cells expressing GCGR, read-out: GCG EC50
structure (smiles),measurement,setting,value
"CC[C@H](C)[C@H](NC(=O)[C@H](Cc1ccccc1)NC(=O)[C@@H]1CCCCNC(=O)CN(C(=O)COCCOCCNC(=O)COCCOCCNC(=O)CC[C@H](NC(=O)CCCCCCCCCCCCCCCCCCC(=O)O)C(=O)O)CC(=O)NCCCC[C@H](NC(=O)[C@H](CCCCN)NC(=O)[C@H](CC(=O)O)NC(=O)[C@H](CC(C)C)NC(=O)[C@](C)(CC(C)C)NC(=O)[C@@H](NC(=O)[C@H](CO)NC(=O)[C@H](Cc2ccc(O)cc2)NC(=O)[C@H](CC(=O)O)NC(=O)[C@H](CO)NC(=O)[C@@H](NC(=O)[C@H](Cc2ccccc2)NC(=O)[C@@H](NC(=O)CNC(=O)[C@H](CCC(N)=O)NC(=O)C(C)(C)NC(=O)[C@@H](N)Cc2ccc(O)cc2)[C@@H](C)O)[C@@H](C)O)[C@@H](C)CC)C(=O)N[C@@H](C)C(=O)N[C@@H](CCC(N)=O)C(=O)NC(C)(C)C(=O)N1)C(=O)N[C@@H](CCC(=O)O)C(=O)N[C@@H](Cc1ccc(O)cc1)C(=O)N[C@@H](CC(C)C)C(=O)N[C@@H](CC(C)C)C(=O)N[C@@H](CCC(=O)O)C(=O)NCC(=O)NCC(=O)N1CCC[C@H]1C(=O)N[C@@H](CO)C(=O)N[C@@H](CO)C(=O)NCC(=O)N[C@@H](C)C(=O)N1CCC[C@H]1C(=O)N1CCC[C@H]1C(=O)N1CCC[C@H]1C(=O)N[C@@H](CO)C(N)=O [Example 1, YAibQGT FTSDY SIα- MeLLD K^1KAQAib ^1KFIEY LLEGG PSSGA PPPS-NH2 (SEQ ID NO: 1)]",EC50,[1],1 pM
same,EC50,[2]; [6],9 pM
same,half-life at 1 μM,[3],> 3.08 h
same,microsomal CLint at 1 μM,[3],< 3.75 µL/min/mg
"CC[C@H](C)[C@H](NC(=O)[C@H](Cc1ccccc1)NC(=O)[C@H](C)NC(=O)C(C)(C)NC(=O)[C@H](CCC(N)=O)NC(=O)[C@H](C)NC(=O)[C@@H]1CCCCNC(=O)CN(C(=O)COCCOCCNC(=O)CC[C@H](NC(=O)CCCCCCCCCCCCCCCCCCC(=O)O)C(=O)O)CC(=O)NCCCC[C@H](NC(=O)[C@](C)(CC(C)C)NC(=O)[C@@H](NC(=O)[C@H](CO)NC(=O)[C@H](Cc2ccc(O)cc2)NC(=O)[C@H](CC(=O)O)NC(=O)[C@H](CO)NC(=O)[C@@H](NC(=O)[C@H](Cc2ccccc2)NC(=O)[C@@H](NC(=O)CNC(=O)[C@H](CCC(N)=O)NC(=O)C(C)(C)NC(=O)[C@@H](N)Cc2ccc(O)cc2)[C@@H](C)O)[C@@H](C)O)[C@@H](C)CC)C(=O)N[C@@H](CC(=O)O)C(=O)N[C@@H](CCCCN)C(=O)N1)C(=O)N[C@@H](CCC(N)=O)C(=O)N[C@@H](Cc1ccc(O)cc1)C(=O)N[C@@H](CC(C)C)C(=O)N[C@@H](CC(C)C)C(=O)N[C@@H](CCC(=O)O)C(=O)NCC(=O)NCC(=O)N1CCC[C@H]1C(=O)N[C@@H](CO)C(=O)N[C@@H](CO)C(=O)NCC(=O)N[C@@H](C)C(=O)N1CCC[C@H]1C(=O)N1CCC[C@H]1C(=O)N1CCC[C@H]1C(=O)N[C@@H](CO)C(N)=O [Example 42, YAibQGT FTSDY SIα- MeL^1KD K^1KAQAib AFIQY LLEGG PSSGA PPPS-NH2 (SEQ ID NO: 39)]",EC50,[4]; [7],25 pM
same,EC50,[2]; [6],7 pM
"CC[C@H](C)[C@H](NC(=O)[C@H](Cc1ccccc1)NC(=O)[C@H](C)NC(=O)C(C)(C)NC(=O)[C@H](CCC(N)=O)NC(=O)[C@H](C)NC(=O)[C@@H]1CCCCNC(=O)CN(C(=O)COCCOCCNC(=O)CC[C@H](NC(=O)CCCCCCCCCCCCCCCCCCC(=O)O)C(=O)O)CC(=O)NCCCC[C@H](NC(=O)[C@](C)(CC(C)C)NC(=O)[C@@H](NC(=O)[C@H](CO)NC(=O)[C@H](Cc2ccc(O)cc2)NC(=O)[C@H](CC(=O)O)NC(=O)[C@H](CO)NC(=O)[C@@H](NC(=O)[C@](C)(Cc2ccccc2)NC(=O)[C@@H](NC(=O)CNC(=O)[C@H](CCC(N)=O)NC(=O)C(C)(C)NC(=O)[C@@H](N)Cc2ccc(O)cc2)[C@@H](C)O)[C@@H](C)O)[C@@H](C)CC)C(=O)N[C@@H](CC(=O)O)C(=O)N[C@@H](CCCCN)C(=O)N1)C(=O)N[C@@H](CCC(=O)O)C(=O)N[C@@H](Cc1ccc(O)cc1)C(=O)N[C@@H](CC(C)C)C(=O)N[C@@H](CC(C)C)C(=O)N[C@@H](CCCCN)C(=O)NCC(=O)NCC(=O)N1CCC[C@H]1C(=O)N[C@@H](CO)C(=O)N[C@@H](CO)C(=O)NCC(=O)N[C@@H](C)C(=O)N1CCC[C@H]1C(=O)N1CCC[C@H]1C(=O)N1CCC[C@H]1C(=O)N[C@@H](CO)C(N)=O [Example 51, YAibQGT α-MeFTSDY SIα- MeL^1KD K^1KAQAib AFIEY LLKGG PSSGA PPPS-NH2 (SEQ ID NO: 43)]",EC50,[4]; [7],25 pM
same,EC50,[2]; [6],1 pM
"CC[C@H](C)[C@H](NC(=O)[C@H](Cc1ccccc1)NC(=O)[C@H](C)NC(=O)C(C)(C)NC(=O)[C@H](CCC(N)=O)NC(=O)[C@H](C)NC(=O)[C@@H]1CCCCNC(=O)CN(C(=O)COCCOCCNC(=O)[C@@H](N)CCCCNC(=O)CC[C@H](NC(=O)CCCCCCCCCCCCCCCCCCC(=O)O)C(=O)O)CC(=O)NCCCC[C@H](NC(=O)[C@](C)(CC(C)C)NC(=O)[C@@H](NC(=O)[C@H](CO)NC(=O)[C@H](Cc2ccc(O)cc2)NC(=O)[C@H](CC(=O)O)NC(=O)[C@H](CO)NC(=O)[C@@H](NC(=O)[C@H](Cc2ccccc2)NC(=O)[C@@H](NC(=O)CNC(=O)[C@H](CCC(N)=O)NC(=O)C(C)(C)NC(=O)[C@@H](N)Cc2ccc(O)cc2)[C@@H](C)O)[C@@H](C)O)[C@@H](C)CC)C(=O)N[C@@H](CC(=O)O)C(=O)N[C@@H](CCCCN)C(=O)N1)C(=O)N[C@@H](CCC(=O)O)C(=O)N[C@@H](Cc1ccc(O)cc1)C(=O)N[C@@H](CC(C)C)C(=O)N[C@@H](CC(C)C)C(=O)N[C@@H](CCC(=O)O)C(=O)NCC(=O)NCC(=O)N1CCC[C@H]1C(=O)N[C@@H](CO)C(=O)N[C@@H](CO)C(=O)NCC(=O)N[C@@H](C)C(=O)N1CCC[C@H]1C(=O)N1CCC[C@H]1C(=O)N1CCC[C@H]1C(=O)N[C@@H](CO)C(N)=O [Example 52, YAibQGT FTSDY SIα- MeL^1KD K^1KAQAib AFIEY LLEGG PSSGA PPPS-NH2 (SEQ ID NO: 24)]",EC50,[4],25 pM
same,EC50,[2],3 pM
same,AUC(0-t),[5]; read-out: AUC0-240 h,5.23 µM·h
same,AUC(0-inf),[5]; read-out: AUCINF,6.61 µM·h
same,Cmax,[5]; read-out: Cmax,36.2 nM
same,half-life,[5]; read-out: T1/2 (converted),97.8 h
same,Tmax,[5]; read-out: Tmax,29.3 h
